# Results: publication PMC5063506, “A Novel Class of Small Molecule Agonists with Preference for Human over Mouse TLR4 Activation” (PLoS ONE, 2016)
# Columns and labels:
# human TLR4 = molecular target: T1, human TLR4 (Homo sapiens, UniProt O00206+Q9Y6Y9); test: Human TLR4 NFκB SEAP reporter gene assay in hTLR4-transfected HEK293 cells; assay type: cell-based; conditions: NFκB SEAP reporter, hTLR4-transfected HEK293 cells, 20 h; read-out: Human TLR4 pEC50 (converted)
# T1 construct: expressed in transfected cells; host or cells: HEK293 with stably integrated pNiFty2-SEAP reporter
# Procedure: HEK293 cells stably transfected with pNiFty2-SEAP reporter plasmid were transiently transfected with either human or mouse TLR4 (pUNO expression vector), in combination with either human or mouse CD14/MD2 (pDUO expression vector). Transient transfectants were seeded in Dulbecco’s Modified Eagle Medium, FCS 10% (v/v), 2 mM l glutamine and non-essential amino acids. Cells were seeded in tissue culture treated clear flat bottom polystyrene 96 well plates (Costar, 3598) at 1e4 cells/well. Concentration-response curves were generated by addition of test compounds and incubation for 20 h at 37°C in an atmosphere of 5% CO2. LPS (E. coli 0111:B4, Ultra-pure, Invivogen) or PHAD (Avanti Polar Lipids) was used as a positive control. The SEAP released was quantified using p nitrophenyl phosphate as a substrate, and the absorbance at 405 nm was measured at 30 second intervals over several minutes using a microplate reader. Some data are recorded as the pEC50, the negative log of the EC50 value. Other data generated from these reporter cell lines were converted to AUC (area under the curve) values by interpolation of fitted cubic spline curve between OD value and log concentration levels. The calculation is performed using MESS package in statistical software R (www.r-project.org/).
# [1] = system: guinea pig TLR4, MD2, and CD14; test: Guinea-pig TLR4 reporter agonist assay (HEK293 SEAP, DDAO phosphate); assay type: cell-based; conditions: 10^-5 to 10^-10 M, 20 h, % of maximum 1 μM LPS signal
# Description: Fragments of guinea pig TLR4 were identified by searching the Ensembl genome browser database (http://www.ensembl.org/index.html) using the BLAST algorithm and discontiguous mega blast of the NCBI trace archives (http://www.ncbi.nlm.nih.gov/blast/tracemb.shtml) using the DNA sequence of human TLR4 Isotype A as the search string. Guinea pig CD14 was assembled in silico from fragments identified in the NCBI trace archives using human CD14 as the search string (76% similar/72% identical). Fragments corresponding to guinea pig MD2 were identified by searching the Ensembl genome browser database and NCBI trace archives with human MD2 as the search string (72% similar/68% identical). Sequence information was used to design primers for PCR amplification of full length coding sequences from guinea pig spleen cDNA. Sequences for guinea pig MD2 and CD14 were as predicted in silico. gpTLR4 was cloned into the expression vector pUNO (Invivogen). gpMD2 and gpCD14 were cloned together into pDUO (Invivogen) for co-expression. gpMD2 was also cloned into pUNO for transient co-expression with gpTLR4. A stable mixed population expressing gpTLR4 /CD14/MD2 was made by transfecting the gpTLR4/pUNO and gpMD2 + gpCD14/pDUO constructs into a HEK293 cell-line containing a stably integrated pNiFty2-SEAP reporter plasmid (Invivogen) using Fugene-6 (Roche). […]
# SEAP detection assay was performed as previous described by. […] Plates were read using the Envision plate reader excitation λex 620nm, emission λem 665nm. Data was analyzed as % maximum 1 μM Ultrapure (0111:B4) LPS activation signal (Invivogen).
# Fig 5 Ugi compounds activate guinea pig TLR4/MD2-HEK transfectants. […] The plates were developed with the addition of DDAO phosphate as substrate and then read on a plate reader at 620 nm. Data were analyzed as % of the maximum 1 μM Ultrapure (0111:B4) LPS activation signal.
# T1 sequence (O00206 24-839): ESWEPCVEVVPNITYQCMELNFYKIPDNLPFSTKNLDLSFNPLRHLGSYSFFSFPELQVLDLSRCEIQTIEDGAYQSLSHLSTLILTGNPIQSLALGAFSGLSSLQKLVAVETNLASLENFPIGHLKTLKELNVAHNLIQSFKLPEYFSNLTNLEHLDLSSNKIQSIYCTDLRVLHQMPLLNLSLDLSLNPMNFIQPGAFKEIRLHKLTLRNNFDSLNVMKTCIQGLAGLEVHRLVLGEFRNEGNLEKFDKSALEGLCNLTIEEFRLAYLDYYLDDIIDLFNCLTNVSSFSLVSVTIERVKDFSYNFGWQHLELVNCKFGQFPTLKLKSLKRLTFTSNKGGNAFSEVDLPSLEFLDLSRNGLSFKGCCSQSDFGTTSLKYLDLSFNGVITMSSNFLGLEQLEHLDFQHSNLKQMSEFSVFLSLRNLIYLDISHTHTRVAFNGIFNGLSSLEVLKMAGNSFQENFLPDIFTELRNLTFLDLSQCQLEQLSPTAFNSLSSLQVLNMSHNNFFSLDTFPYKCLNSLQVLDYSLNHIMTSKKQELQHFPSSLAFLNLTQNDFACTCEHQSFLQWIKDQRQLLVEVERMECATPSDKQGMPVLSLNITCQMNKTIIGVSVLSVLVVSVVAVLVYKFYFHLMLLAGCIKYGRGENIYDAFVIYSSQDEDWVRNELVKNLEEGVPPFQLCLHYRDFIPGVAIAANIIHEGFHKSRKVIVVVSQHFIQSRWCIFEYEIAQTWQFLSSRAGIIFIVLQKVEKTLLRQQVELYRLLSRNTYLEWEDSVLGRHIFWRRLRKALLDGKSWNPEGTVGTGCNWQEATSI
# T1 sequence (Q9Y6Y9 19-160): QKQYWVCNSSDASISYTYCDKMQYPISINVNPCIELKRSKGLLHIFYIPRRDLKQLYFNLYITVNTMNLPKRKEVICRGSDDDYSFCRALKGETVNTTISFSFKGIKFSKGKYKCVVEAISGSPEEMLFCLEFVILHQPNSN
EC50 (human TLR4) [µM],SMILES,potency on gpTLR4/gpMD2/gpCD14 HEK293 transfectants [1]
0.02,"Cc1cc(C)cc(N(C(=O)c2cc(-c3ccccc3)n(-c3ccccc3)n2)C(C(=O)NC2CCCC2)c2ccc(CC(=O)O)cc2)c1 (stereo not shown) [AZ618, 2-(4-(2-(cyclopentylamino)-1-(N-(3,5-dimethylphenyl)-1,5-diphenyl-1H-pyrazole-3-carboxamido)-2-oxoethyl)phenyl)acetic acid]",
0.00501,O=C(O)Cc1ccc(C(C(=O)NC2CCCC2)N(C(=O)c2cc(-c3ccccc3)n(-c3ccccc3)n2)c2ccc3c(c2)CCC3)cc1 (stereo not shown) [AZ617],potency comparable to LPS
0.02,Cc1ccc(N(C(=O)c2cc(-c3ccccc3)n(-c3ccccc3)n2)C(C(=O)NC2CCCC2)c2ccc(CC(=O)O)cc2)cc1Cl (stereo not shown) [AZ161],potency comparable to LPS
0.00631,CC(C)(C)c1ccc(N(C(=O)c2cc(-c3ccccc3)n(-c3ccccc3)n2)C(C(=O)NC2CCCC2)c2ccc(CC(=O)O)cc2)cc1 (stereo not shown) [AZ902],less active but still positive
